# In patent US11464787B2, “Composition comprising oleanolic acid acetate as active ingredient for preventing, alleviating, or treating renal toxicity induced by medicine” (Korea Research Institute of Bioscience and Biotechnology, priority 2016, dated 2022):
# Experiments:
# peritoneal macrophages = assay: MTT assay cytotoxicity in mouse peritoneal macrophages; assay type: cell-based; conditions: for cell survival rate: maximum concentration of 1000 μg/ml, 24 hours
# Method: For the isolation of peritoneal macrophage of mice, 3 ml of 3% thioglycollate medium was administered intraperitoneally to 5-6 week old ICR male mice (Oriental Bio, Seoul, Korea). After 3 days, 6 ml to 7 ml of PBS was administered intraperitoneally, followed by a massage of peritoneal cavity to collect the peritoneal fluid. The collected peritoneal fluid was centrifuged and suspended in RPMI (10% FBS, 1% antibiotics), transferred to a plate, and stabilized at 37° C. for 2 hours.
# (§1) The absorbance thereof was measured at 570 nm.
# HEK-293T cells = assay: MTT assay cytotoxicity in HEK-293T human embryonic kidney cells; conditions: for cell survival rate: HEK-293T, highest concentration of 1000 μg/ml, 24 hours
# Method: HEK-293T cells, human embryonic kidney cells, were cultured in Dulbecco's modified eagle medium (Cat No. 12800-017, Gibco, USA) supplemented with heat-inactivated 10% FBS.
# The survival rate of cultured cells was measured by MTT reduction method. As an MTT solution, formazan was formed by mitochondrial dehydrogenases in living cells to confirm cell viability. […] After 24 hours, 20 μl of MTT solution was added to each well, followed by further culturing for 2 hours. Then, the culture solution was removed, and 100 μl of dimethylsulfoxide was added thereto. The absorbance thereof was measured at 570 nm.
# IL-6 [1] = assay: Blood IL-6 by ELISA in cisplatin-induced nephrotoxicity model; assay type: in vivo, C57BL/6 male mice; conditions: cisplatin and oleanolic acid acetate (50 mg/Kg)-treated group, serum ELISA
# Method: (§2) For the experiment, the mice were kept under constant temperature (23±3° C.), humidity (55±15%) and light irradiation (7:00 to 19:00). After the purchase, the mice were stabilized in the SPF animal breeding room for 1 week and used in the experiment.
# (§3) In order to measure inflammatory cytokines in the blood (TNF-α and IL-6), serum was separated and used from blood, and TNF-α and IL-6 were measured using a mouse ELISA kit (R&D system, Minneapolis, Minn., USA). ELISA color development was measured using a Varioskan™ LUX multimode microplate reader (Thermofisher, Sunnyvale, Calif., USA) at a wavelength of 450 nm.
# spleen cells = assay: MTT assay cytotoxicity in mouse spleen cells; assay type: cell-based; conditions: all concentrations (100, 300, and 600 μg/ml)
# Method: For the isolation of mouse spleen cells, 5-6 week old ICR male mice (Oriental Bio, Seoul, Korea) were sacrificed with CO2 and then their spleen was aseptically extracted. The spleen was ground with a filter to separate single spleen cells, centrifuged using centrifugation, and erythrocytes were dissolved using ficoll. Cells from which erythrocytes had been removed were stabilized with RPMI (10% FBS, 1% antibiotics) at 37° C. for 2 hours.
# as §1
# [2] = test system: cisplatin-induced nephrotoxicity; assay: Cisplatin-induced nephrotoxicity animal model: body weight, kidney weight, death rate, BUN; assay type: in vivo, C57BL/6 male mice
# Method: as §2
# After the mouse sacrifice, the body weight was measured, the kidney was isolated, the blood was collected from the heart, and the blood urea nitrogen (BUN), a biochemical indicator related to nephrotoxicity, was measured. The collected mouse blood was centrifuged at 3000 rpm and 4° C. for 15 minutes using a centrifuge to separate the only serum, and the BUN was measured using an automatic analyzer (Fuji Dry-Chem NX500i, Tokyo, Japan).
# The death rate was expressed as a percentage by dividing the number of mice killed in each group by the total number of mice.
# TNF-α [3] = assay: Kidney tissue TNF-α mRNA expression by real-time PCR in cisplatin-induced nephrotoxicity model; assay type: in vivo, C57BL/6 male mice; conditions: cisplatin and oleanolic acid acetate (50 mg/Kg)-treated group
# Method: as §2
# (§4) After the mouse sacrifice, kidneys were separated and homogenized by adding Trizol reagent (Invitrogen, Carlsbad, Calif., USA). To this, chloroform was added to extract RNA, and isopropanol was added to precipitate. After the RNA precipitate was washed with 75% ethanol, the RNA concentration and purity were measured with a 2100 Bioanalyzer System (Agilent Technologies, Santa Clara, Calif., USA), and Taqman reverse transcription reagents kit (Applied Biosystems, Foster City) was used to synthesize cDNA. The expression level of inflammatory factors was measured by real-time PCR using SYBR Green PCR master mix kit (Applied Biosystem, Foster City, Calif., USA).
# (§5) In order to examine the expression levels of TNF-α and IL-6, inflammatory cytokines, COX-2, a prostaglandin E2 (PGE2) synthase involved in increasing the vascular permeability of the inflammatory response, and MCP-1, an inflammatory chemokine, Real-time PCR was performed on each gene.
# IL-6 [4] = assay: Kidney tissue IL-6 mRNA expression by real-time PCR in cisplatin-induced nephrotoxicity model; assay type: in vivo, C57BL/6 male mice; conditions: cisplatin and oleanolic acid acetate (50 mg/Kg)-treated group
# Method: as §2, §4, §5
# MCP-1 = assay: Kidney tissue MCP-1 mRNA expression by real-time PCR in cisplatin-induced nephrotoxicity model; assay type: in vivo, C57BL/6 male mice; conditions: cisplatin and oleanolic acid acetate (50 mg/Kg)-treated group
# Method: as §2, §4, §5
# TNF-α [5] = assay: Blood TNF-α by ELISA in cisplatin-induced nephrotoxicity model; assay type: in vivo, C57BL/6 male mice; conditions: cisplatin and oleanolic acid acetate (50 mg/Kg)-treated group, serum ELISA
# Method: as §2, §3
# COX-2 = assay: Kidney tissue COX-2 mRNA expression by real-time PCR in cisplatin-induced nephrotoxicity model; assay type: in vivo, C57BL/6 male mice; conditions: cisplatin and oleanolic acid acetate (50 mg/Kg)-treated group
# Method: as §2, §4, §5
Structure (SMILES),cytotoxicity (in words) (peritoneal macrophages),cell survival rate (peritoneal macrophages),cell survival rate (HEK-293T cells),IL-6 in the blood (IL-6 [1]),cell survival rate compared with oleanolic acid (in words) (spleen cells),"death rate ([2]; cisplatin 20 mg/kg i.p. and oleanolic acid acetate 50 mg/Kg orally, mice)","BUN value ([2]; cisplatin and oleanolic acid acetate (50 mg/Kg oral)-treated group, serum, day 5, vs cisplatin group)",amount of mRNA expression of TNF-α (TNF-α [3]),amount of mRNA expression of IL-6 (IL-6 [4]),"cytotoxicity (in words) (HEK-293T cells; human kidney cell lines, compared with oleanolic acid)",amount of mRNA expression of MCP-1 (MCP-1),TNF-α in the blood (TNF-α [5]),amount of mRNA expression of COX-2 (COX-2)
CC1(C)CC[C@]2(C(=O)O)CC[C@]3(C)C(=CC[C@@H]4[C@@]5(C)CC[C@H](O)C(C)(C)[C@@H]5CC[C@]43C)[C@@H]2C1 [oleanolic acid],cytotoxicity in a concentration-dependent manner,41%,27%,–,–,–,–,–,–,–,–,–,–
"CC(=O)O[C@H]1CC[C@@]2(C)C(CC[C@]3(C)[C@@H]2CC=C2[C@H]4CC(C)(C)CC[C@]4(C(=O)O)CC[C@]23C)C1(C)C (stereo partly drawn) [oleanolic acid acetate, 4aS,6aR,6aS,6bR,8aR,10S,12aR,14bS-10-hydroxy-2,2,6a,6b,9,9,12a-heptamethyl-1,3,4,5,6,6a,7,8,8a,10,11,12,13,14b-tetradecahydropicene-4a-carboxylic acid acetate]",almost no cytotoxicity,81%,43%,decreased,higher cell survival rate than that of oleanolic acid,44%,decreased,decreased,decreased,concentration-dependently less than that of oleanolic acid,decreased,decreased,decreased
